Results from the NIST ThermoML archive (doi:10.1016/j.fluid.2015.12.055).
Numbers after ± are expanded uncertainties.

Conditions: Liquid, Vibrating tube method

CCn1cc[n+](C)c1.F[B-](F)(F)F [1-ethyl-3-methylimidazolium tetrafluoroborate]
Conditions | mass density [kg/m3]
293.15 K, 101.33 kPa | 1283.53 ± 1.5
298.15 K, 101.33 kPa | 1279.7 ± 1.5
303.15 K, 101.33 kPa | 1275.89 ± 1.5
313.15 K, 101.33 kPa | 1268.33 ± 1.4
313.15 K, 503 kPa | 1268.82 ± 1.4
313.15 K, 999 kPa | 1269.09 ± 1.4
313.15 K, 2001 kPa | 1269.74 ± 1.5
313.15 K, 2998 kPa | 1270.26 ± 1.5
313.15 K, 4000 kPa | 1270.93 ± 1.5
313.15 K, 5002 kPa | 1271.59 ± 1.5
313.15 K, 6000 kPa | 1272.21 ± 1.5
323.15 K, 101.33 kPa | 1260.85 ± 1.4
333.15 K, 101.33 kPa | 1253.45 ± 1.4
343.15 K, 101.33 kPa | 1246.11 ± 1.4
353.15 K, 101.33 kPa | 1238.83 ± 1.4
363.15 K, 101.33 kPa | 1231.6 ± 1.3

CCn1cc[n+](C)c1.O=S(=O)([O-])C(F)(F)C(F)(F)C(F)(F)C(F)(F)F
Conditions | mass density [kg/m3]
298.15 K, 101.33 kPa | 1546.54 ± 4.7
303.15 K, 101.33 kPa | 1541.24 ± 4.6
313.15 K, 101.33 kPa | 1530.71 ± 4.6
313.15 K, 510 kPa | 1530.15 ± 4.6
313.15 K, 1007 kPa | 1530.64 ± 4.6
313.15 K, 2007 kPa | 1531.73 ± 4.6
313.15 K, 3005 kPa | 1532.82 ± 4.7
313.15 K, 4004 kPa | 1533.91 ± 4.7
313.15 K, 5000 kPa | 1534.99 ± 4.7
313.15 K, 5999 kPa | 1536.06 ± 4.7
323.15 K, 101.33 kPa | 1520.31 ± 4.5
333.15 K, 101.33 kPa | 1510.01 ± 4.5
343.15 K, 101.33 kPa | 1499.78 ± 4.4
353.15 K, 101.33 kPa | 1489.64 ± 4.3
363.15 K, 101.33 kPa | 1479.58 ± 4.3

CCn1cc[n+](C)c1.O=S(=O)([N-]S(=O)(=O)C(F)(F)F)C(F)(F)F
Conditions | mass density [kg/m3]
273.15 K, 101.33 kPa | 1544.43 ± 4.7
283.15 K, 101.33 kPa | 1534.1 ± 4.6
293.15 K, 101.33 kPa | 1523.89 ± 4.5
298.15 K, 101.33 kPa | 1518.83 ± 4.5
303.15 K, 101.33 kPa | 1513.78 ± 4.5
313.15 K, 101.33 kPa | 1503.75 ± 4.4
313.15 K, 508 kPa | 1504.27 ± 4.4
313.15 K, 1002 kPa | 1504.75 ± 4.4
313.15 K, 1999 kPa | 1505.7 ± 4.5
313.15 K, 3001 kPa | 1506.65 ± 4.5
313.15 K, 3997 kPa | 1507.6 ± 4.5
313.15 K, 5001 kPa | 1508.55 ± 4.5
313.15 K, 6005 kPa | 1509.49 ± 4.6
323.15 K, 101.33 kPa | 1493.8 ± 4.4
333.15 K, 101.33 kPa | 1483.92 ± 4.3
343.15 K, 101.33 kPa | 1474.1 ± 4.2
353.15 K, 101.33 kPa | 1464.36 ± 4.2
363.15 K, 101.33 kPa | 1454.67 ± 4.1

CCn1cc[n+](C)c1.O=S(=O)([N-]S(=O)(=O)C(F)(F)C(F)(F)F)C(F)(F)C(F)(F)F
Conditions | mass density [kg/m3]
273.15 K, 101.33 kPa | 1621.64 ± 5.1
283.15 K, 101.33 kPa | 1610.4 ± 5.1
293.15 K, 101.33 kPa | 1599.21 ± 5
298.15 K, 101.33 kPa | 1593.65 ± 5
303.15 K, 101.33 kPa | 1588.12 ± 4.9
313.15 K, 101.33 kPa | 1577.13 ± 4.9
313.15 K, 497 kPa | 1577.9 ± 4.9
313.15 K, 1001 kPa | 1578.46 ± 4.9
313.15 K, 1999 kPa | 1579.57 ± 4.9
313.15 K, 3003 kPa | 1580.67 ± 5
313.15 K, 4007 kPa | 1581.77 ± 5
313.15 K, 5000 kPa | 1582.86 ± 5
313.15 K, 6004 kPa | 1583.94 ± 5
323.15 K, 101.33 kPa | 1566.23 ± 4.8
333.15 K, 101.33 kPa | 1555.4 ± 4.7
343.15 K, 101.33 kPa | 1544.63 ± 4.7
353.15 K, 101.33 kPa | 1533.92 ± 4.6
363.15 K, 101.33 kPa | 1523.27 ± 4.5
